Test results published in patent US11434205B2, “Substituted imidazole carboxylate derivatives and the use thereof” (priority 2018, dated 2022).
Read-outs that look alike come from different tables or passages of the source.

Experiments:
rats [1] = assay: Loss of righting reflexes (LORR) assay in rats, ED50 by up and down method; type: in vivo, rat; conditions: Rattus norvegicus, tail vein, class symbols
How it was run: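 ED50 obtained by up-and-down dosing, with righting-reflex loss over 30 s counted as general anesthesia. Compounds injected into the tail vein (0.1 mL/s) of male Sprague-Dawley rats weighing 250-300 g.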

rats [2] = system: rats
Experimental: Adult male Sprague-Dawley rats (250-300 g) were selected for the experiment. […] The anesthesia effects of the compounds were assessed in rats using a LORR assay and a period >30 s was considered as an indicator of general anesthesia. Then the up and down method was used to determine 50% effective dose (ED50). The drugs were administered through the tail vein of rats in a volume of 0.6 mL and at a rate of 0.1 mL/s.

rats [3] = assay: Pharmacological characteristics at equivalent doses (2×ED50) in rats; conditions: 2×ED50, tail vein; for Adverse reactions: Red urine (incidence): DMSO solution (DMSO alone 10/10); for Adverse reactions: Tremor (incidence): animals affected/animals; for Onset time: time of LORR
How it was run: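 Anesthesia onset, recorded as time of LORR, was measured after a 2×ED50 tail-vein injection (0.6 mL, 0.1 mL/s). Animals were male Sprague-Dawley rats of 250-300 g, n=8.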

[4] = system: secretion of corticosterone, H295R cell line; assay: cells; type: cell-based; conditions: for EC50: Homo sapiens, NCI-H295R, read-out: EC50 (Corticosterone)
Experimental: (§1) The Effects of the Compounds on Adrenocortical Function In Vitro Test
(§2) Then secretion of the cortisol and corticosterone in the supernatant, was measured using HPLC-MS/MS method to determine whether the compounds of the present invention had adrenotoxic potential.

[5] = system: secretion of cortisol, H295R cell line; assay: cells; type: cell-based; conditions: for EC50: Homo sapiens, NCI-H295R, read-out: EC50 (Cortisol)
Experimental: as §1, §2

rats [6] = type: in vivo, rat; conditions: rats of the MAP/HR figures, 2×ED50, tail vein; same value in min
How it was run: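 Hemodynamic stability judged from mean arterial pressure and heart rate, recorded at 15 s intervals over 30 min pre- and post-dose. Dosing was through a tail-vein indwelling catheter in rats carrying implanted aortic/ventricular catheters and ECG wires, operated ≥1 week earlier.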

rats [7] = system: rats; remark: listed apart in the source
Experimental: Pharmacological Effects of the Compounds on Continuous Infusion in Rats
Adult male Sprague-Dawley rats with body weight ranging from 250 to 300 gm were selected for continuous infusion test. […] Time to recovery of righting reflex from stopping infusion, and time to fully awake from stopping infusion were recorded.

rats [8] = type: in vivo, rat; conditions: rats of the MAP/HR figures, 2×ED50, tail vein
[9] = continuous tail vein infusion at 2×MIR, LORR maintained 1 hour, Table C4
[10] = H295R cell line, 0.1-10000 nM, HPLC-MS/MS, Table D3
[11] = continuous tail vein infusion at 2×MIR, LORR maintained 1 hour, Table D4

Compound	ED50 (rats [1])	Approximate therapeutic index (rats [2])	Minimal lethal dose (rats [2])	Righting reflex duration (rats [3])	Adverse reactions: Red urine (incidence) (rats [3])	Adverse reactions: Tremor (incidence) (rats [3])	Onset time (rats [3])	EC50 [4]	EC50 [5]	recovery time of the test animals' righting reflex (rats [6])	recovery time of the test animals' righting reflex (rats [8])	Corticosterone as an indicator to determine the presence of inhibition ([4]; H295R, Table C3)	Cortisol as an indicator to determine the presence of inhibition ([5]; H295R, Table C3)	Onset time (rats [7]; [9])	Recovery time after stopping infusion (rats [7]; [9])	Types and incidence of adverse reactions (rats [7]; [9])	other results
CCCC1(OC(=O)c2cncn2[C@H](C)c2ccccc2)COC1 [Compound B19]	0.5 to 1 mg/kg	>11	>20 mg/kg	1.99 ± 1.39 min	8/8	2/8	0.31 ± 0.13 min	> 10 µM	> 10 µM	2.08 min	125 s	–	–	–	–	–	Corticosterone as an indicator to determine the presence of inhibition ([4]; H295R, Table B3): 0; Cortisol as an indicator to determine the presence of inhibition ([5]; H295R, Table B3): 0; Recovery time after stopping infusion (rats [7]; after 1 hour infusion at 2×MIR): 12 to 17 min; Adverse reactions: Tremor (incidence) (rats [7]; continuous infusion 2×MIR): Tremor (5/6); Onset time (rats [7]; emulsion, continuous infusion at 2×MIR): 3 to 4 min
CC(=O)C1(OC(=O)c2cncn2[C@H](C)c2ccccc2)COC1 [Compound C3]	0.5 to 1 mg/kg	>14	>10 mg/kg	1.31 ± 0.95 min	urine (8/8)	–	0.36 ± 0.12 min	> 1 µM	> 1 µM	1.25 min	75 s	0	0	3 to 4 min	10 to 14 min	Restlessness (2/6), Tremor (3/6)	Adverse reactions: Restlessness (incidence) (rats [3]): Restlessness (3/8), Red
CC(=O)CCOC(=O)c1cncn1[C@H](C)c1ccccc1 [Compound C7]	0.1 to 0.5 mg/kg	>10	>4 mg/kg	1.68 ± 0.88 min	Red urine (8/8)	–	0.15 ± 0.06 min	> 1 µM	> 1 µM	1.87 min	112 s	0	0	3 to 4 min	8 to 14 min	Tremor (6/6)	Adverse reactions: Muscle twitching (incidence) (rats [3]): Muscle twitching (4/8),
C[C@H](c1ccccc1)n1cncc1C(=O)OC(C)(C)C [Compound C18]	0.1 to 0.5 mg/kg	>14	>5 mg/kg	1.96 ± 1.39 min	(8/8)	Tremor (5/8), Red urine	0.25 ± 0.13 min	> 1 µM	> 1 µM	1.92 min	115 s	0	0	3 to 4 min	10 to 14 min	Tremor (1/6)	–
CCCC(CCC)OC(=O)c1cncn1[C@H](C)c1ccccc1 [Compound C20]	0.1 to 0.5 mg/kg	>16	>7 mg/kg	3.59 ± 2.63 min	(8/8)	Tremor (2/8), Red urine	0.43 ± 0.07 min	> 10 µM	> 10 µM	4.05 min	243 s	0	0	3 to 4 min	8 to 15 min	Tremor (3/6), Myoclonus (1/6)	–
CCC(CC)OC(=O)c1cncn1[C@H](C)c1ccccc1 [Compound C24]	0.01 to 0.1 mg/kg	>11	>1 mg/kg	2.21 ± 1.28 min	urine (8/8)	–	0.49 ± 0.15 min	> 1 µM	> 1 µM	2.25 min	135 s	0	0	3 to 4 min	9 to 13 min	Tremor (1/6)	Adverse reactions: Convulsions (incidence) (rats [3]): Convulsions (1/8), Red
CCCCC(CCCC)OC(=O)c1cncn1[C@H](C)c1ccccc1 [Compound C25]	0.1 to 0.5 mg/kg	>10	>4 mg/kg	2.03 ± 1.32 min	(8/8)	Tremor (6/8), Red urine	0.72 ± 0.20 min	> 1 µM	> 1 µM	2.08 min	125 s	0	0	3 to 4 min	12 to 15 min	–	–
CSCOC(=O)c1cncn1[C@H](C)c1ccccc1 [Compound C26]	0.5 to 1 mg/kg	>11	>6 mg/kg	2.11 ± 1.02 min	Red urine (8/8)	–	0.30 ± 0.09 min	> 10 µM	> 10 µM	2.28 min	137 s	0	0	2 to 3 min	9 to 13 min	Tremor (2/6)	Adverse reactions: Muscle twitching (incidence) (rats [3]): Muscle twitching (1/8),
CSCCOC(=O)c1cncn1[C@H](C)c1ccccc1 [Compound C27]	0.5 to 1 mg/kg	>11	>9 mg/kg	3.06 ± 1.50 min	Red urine (8/8)	–	0.12 ± 0.07 min	> 1 µM	> 1 µM	3.1 min	186 s	0	0	3 to 4 min	10 to 11 min	Tremor (2/6)	–
C=C=CC1(OC(=O)c2cncn2[C@H](C)c2ccccc2)CCC1 [Compound D13]	0.01 to 0.1 mg/kg	>12	>6 mg/kg	5.09 ± 1.89 min	Red urine (8/8)	–	0.25 ± 0.06 min	> 10 µM	> 10 µM	1.82 min	109 s	–	–	–	–	–	Corticosterone as an indicator to determine the presence of inhibition [4, 10]: 0; Cortisol as an indicator to determine the presence of inhibition [5, 10]: 0; Onset time (rats [7]; [11]): 2 to 3 min; Recovery time after stopping infusion (rats [7]; [11]): 13 to 22 min; Types and incidence of adverse reactions (rats [7]; [11]): Tremor (4/6)
C#CC(C)OC(=O)c1cncn1[C@H](C)c1ccccc1 (stereo partly shown) [Compound D14]	0.1 to 0.5 mg/kg	>13	>3 mg/kg	2.09 ± 1.08 min	Red urine (8/8)	–	0.24 ± 0.09 min	> 10 µM	> 10 µM	3.5 min	210 s	–	–	–	–	–	Corticosterone as an indicator to determine the presence of inhibition [4, 10]: 0; Cortisol as an indicator to determine the presence of inhibition [5, 10]: 0; Onset time (rats [7]; [11]): 2 to 3 min; Recovery time after stopping infusion (rats [7]; [11]): 11 to 14 min; Types and incidence of adverse reactions (rats [7]; [11]): Tremor (5/6)
